Legend:
[1] = target: T1, human CB2R (Homo sapiens, UniProt P34972); experiment: Human CB2 receptor binding (3H-CP55940 competition, SPA); parameters: purchased Perkin Elmer Life and Analytical Sciences; host or cells: HEK293 EBNA cells, stably transfected; conditions: through the use of the above described assays (CB1/CB2 binding, CB2R and CB1R cAMP); assay not specified further
Procedure: A. Human CB1 and CB2 Receptor Binding:
CB2 membranes were purchased and made from HEK293 EBNA cells stably transfected with human CB2 receptor cDNA (Perkin Elmer Life and Analytical Sciences). CB1 membranes were isolated from HEK cells stably co-transfected with human CB1 receptor and Gα16 cDNA's. The membrane preparation was bound to scintillation beads (Ysi-Poly-L-lysine SPA beads, GE Healthcare) for 4 hours at room temperature in assay buffer containing 50 mM Tris, pH 7.5, 2.5 mM EDTA, 5 mM MgCl2, 0.8% fatty acid free Bovine Serum Albumin. Unbound membrane was removed by washing in assay buffer. Membrane-bead mixture was added to 96-well assay plates in the amounts of 15 ug membrane per well (CB2) or 2.5 ug per well (CB1) and 1 mg SPA bead per well. Compounds were added to the membrane-bead mixture in dose-response concentrations ranging from 1×10^−5 M to 1×10^−10 M with 0.25% DMSO, final. The competition reaction was initiated with the addition of ^3H-CP55940 (Perkin Elmer Life and Analytical Sciences) at a final concentration of 1.5 nM (CB2) or 2.5 nM (CB1). The reaction was incubated at room temperature for 18 hours and read on TopCount NXT plate reader. Total and non-specific binding was determined in the absence and presence of 1.25 uM Win 55212 (Sigma). IC50 values for each compound were calculated as the concentration of compound that inhibits the specific binding of the radioactively labeled ligand to the receptor by 50% using the XLFit 4.1 four parameter logistic model. IC50 values were converted to inhibition constant (Ki) values using Cheng-Prusoff equation.

[2] = target: T1, human CB2R; experiment: CB2R mediated modulation of cAMP synthesis; format: cell-based; parameters: host or cells: CHO cells; conditions: agonists decrease forskolin induced production of cAMP; CHO cells expressing human CB2R
Procedure: B. CB2R Mediated Modulation of cAMP Synthesis:
Compounds of the invention were evaluated for their CB2 agonist or inverse agonistic activity in accordance with the following experimental method.
CHO cells expressing human CB2R (Euroscreen) were plated at a density of 5000 cells per well in 384 well plates and incubated overnight at 37° C. After removing the media, the cells were treated with test compounds diluted in stimulation buffer containing 1 mM IBMX, 0.25% BSA and 10 uM Forskolin. The assay was incubated for 30 minutes at 37° C. Cells were lysed and the cAMP concentration was measured using DiscoverX-XS cAMP kit, following the manufacturer's protocol. In this setting, agonists will decrease forskolin induced production of cAMP while inverse agonists will further increase forskolin induced production of cAMP. EC50 of agonists were calculated as follows. The maximal amount of cAMP produced by forskolin compared to the level of cAMP inhibited by 1 uM CP55940 is defined as 100%. The EC50 value of each test compound was determined as the concentration at which 50% of the forskolin-stimulated cAMP synthesis was inhibited. Data was analyzed using a four-parameter logistic model. (Model 205 of XLfit 4.0).

T1 sequence (P34972 whole entry): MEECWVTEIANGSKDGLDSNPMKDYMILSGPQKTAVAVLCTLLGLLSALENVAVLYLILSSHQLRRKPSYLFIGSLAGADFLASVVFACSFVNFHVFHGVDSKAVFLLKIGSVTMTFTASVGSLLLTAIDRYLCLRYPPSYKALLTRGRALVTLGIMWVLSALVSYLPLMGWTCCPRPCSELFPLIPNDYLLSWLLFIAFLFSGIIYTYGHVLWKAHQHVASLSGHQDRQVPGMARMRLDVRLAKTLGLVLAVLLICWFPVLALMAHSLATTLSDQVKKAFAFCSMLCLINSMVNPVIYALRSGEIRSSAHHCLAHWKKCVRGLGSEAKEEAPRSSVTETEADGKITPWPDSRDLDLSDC

Row | found to exhibit activity [1] | found to exhibit agonistic activity [2] | Structure (SMILES)
1 | exhibit activity | exhibit agonistic activity | c1ccc([C@H]2CN(Cc3ccc(Nc4cccc5ccccc45)nc3)CCO2)cc1 [Example 6, Naphthalen-1-yl-[5-((S)-2-phenyl-morpholin-4-ylmethyl)-pyridin-2-yl]-amine]
2 | exhibit activity | exhibit agonistic activity | Clc1ccc(Nc2ccc(CN3CCO[C@@H](c4ccccc4)C3)cn2)cc1Cl [Example 27, (3,4-Dichloro-phenyl)-[5-((S)-2-phenyl-morpholin-4-ylmethyl)-pyridin-2-yl]-amine]
3 | exhibit activity | exhibit agonistic activity | Clc1ccc(Nc2ccc(CN3CCO[C@@H](c4ccccc4)C3)cn2)c(Cl)c1 [Example 19, (2,4-Dichloro-phenyl)-[5-((S)-2-phenyl-morpholin-4-ylmethyl)-pyridin-2-yl]-amine]
4 | exhibit activity | exhibit agonistic activity | COc1ccc(Nc2ccc(CN3CCO[C@@H](c4ccccc4)C3)cn2)cc1 [Example 2, (4-Methoxy-phenyl)-[5-((S)-2-phenyl-morpholin-4-ylmethyl)-pyridin-2-yl]-amine]
5 | exhibit activity | exhibit agonistic activity | Clc1cccc(Nc2ccc(CN3CCO[C@@H](c4ccccc4)C3)cn2)c1Cl [Example 18, (2,3-Dichloro-phenyl)-[5-((S)-2-phenyl-morpholin-4-ylmethyl)-pyridin-2-yl]-amine]
6 | exhibit activity | exhibit agonistic activity | Fc1ccccc1Nc1ccc(CN2CCO[C@@H](c3ccccc3)C2)cn1 [Example 16, (2-Fluoro-phenyl)-[5-((S)-2-phenyl-morpholin-4-ylmethyl)-pyridin-2-yl]-amine]
7 | exhibit activity | exhibit agonistic activity | FC(F)(F)Oc1ccccc1Nc1ccc(CN2CCO[C@@H](c3ccccc3)C2)cn1 [Example 32, [5-((S)-2-Phenyl-morpholin-4-ylmethyl)-pyridin-2-yl]-(2-trifluoromethoxy-phenyl)-amine]
8 | exhibit activity | exhibit agonistic activity | Cc1ccccc1Nc1ccc(CN2CCO[C@@H](c3ccccc3)C2)cn1 [Example 24, [5-((S)-2-Phenyl-morpholin-4-ylmethyl)-pyridin-2-yl]-o-tolyl-amine]
9 | exhibit activity | exhibit agonistic activity | Fc1cccc(Nc2ccc(CN3CCO[C@@H](c4ccccc4)C3)cn2)c1 [Example 25, (3-Fluoro-phenyl)-[5-((S)-2-phenyl-morpholin-4-ylmethyl)-pyridin-2-yl]-amine]
10 | exhibit activity | exhibit agonistic activity | FC(F)(F)Oc1ccc(Nc2ccc(CN3CCO[C@@H](c4ccccc4)C3)cn2)cc1 [Example 4, [5-((S)-2-Phenyl-morpholin-4-ylmethyl)-pyridin-2-yl]-(4-trifluoromethoxy-phenyl)-amine]
